Test results: patent US8785452B2, “Anti-infective compounds” (priority 2008, dated 2014)
Where two headings read alike, the source gives them in different places.

Assays:
Raw264.7 cells [1] = test: Cell number (CellNb) from image analysis of the phenotypic cell-based assay
[2] = tested on: M. tuberculosis H37Rv-GFP; test: microbe, parasite or virus in culture; type: cell-based, Mycobacterium tuberculosis; settings: Mycobacterium tuberculosis, H37RV, Macrophage; for inhibition at 0.2 µM: read-out: QIM Confirm % Inhibition 0.2 uM; for inhibition at 2 µM: read-out: QIM Confirm % Inhibition 2 uM
Raw264.7 cells [3] = settings: mouse, 5 days; for Primary QIM CellNb: 20 μM
[4] = tested on: M. tuberculosis H37Rv-GFP; test: microbe, parasite or virus in culture; type: cell-based; settings: Mycobacterium tuberculosis; for inhibition at 0.2 µM: read-out: QUM Confirm % Inhibition 0.2 uM; for inhibition at 2 µM: read-out: QUM Confirm % Inhibition 2 uM; for inhibition at 20 µM: read-out: QUM Confirm % Inhibition 20 uM
[5] = confirmation, 20 uM, read-out: QIM Confirm % Inhibition 20 uM
[6] = primary screen, 20 μM, read-out: Primary QIM % Inhibition
[7] = confirmation, 20 uM, intracellular, read-out: QIM Confirm % Inhibition 20 uM
[8] = primary screen, 20 μM, intracellular, read-out: Primary QIM % Inhibition
[9] = confirmation, 0.2 uM, intracellular
[10] = confirmation, 2 uM, intracellular

Row | SMILES | Primary QIM CellNb (Raw264.7 cells [1]; primary screen, 20 μM) | inhibition at 20 µM [2, 5] [%] | inhibition at 20 µM [2, 6] [%] | QIM Confirm CellNb 0.2 uM (Raw264.7 cells [1]; confirmation, 0.2 uM) | QIM Confirm CellNb 2 uM (Raw264.7 cells [1]; confirmation, 2 uM) | QIM Confirm CellNb 20 uM (Raw264.7 cells [1]; confirmation, 20 uM) | inhibition at 0.2 µM [2, 9] [%] | inhibition at 2 µM [2, 10] [%] | inhibition at 0.2 µM [4] [%] | inhibition at 2 µM [4] [%] | inhibition at 20 µM [4] [%] | other results
1 | O=C(N/N=C/c1ccc[nH]1)c1ccccn1 [IPK 000 058 21] | 452.5 | 56 | 90.9 | – | – | – | – | – | – | – | – | Primary QIM CellNb (Raw264.7 cells [3]): 75.7
2 | CN(C)c1ccc(/C=C2/c3ccccc3-c3ccc(C(=O)CCCCN4CCCCC4)cc32)cc1 [IPK 000 198 53] | – | – | – | – | – | – | – | – | – | – | – | inhibition at 20 µM [2, 7]: 41.9%; inhibition at 20 µM [2, 8]: 58.5%; Primary QIM CellNb (Raw264.7 cells [3]): 10.2
3 | CSc1nsc(SCc2ccc(C(=O)Nc3ccc(C)cc3C)cc2)n1 [IPK 000 125 08] | – | – | – | – | – | – | – | – | – | – | – | inhibition at 20 µM [2, 7]: 65.1%; inhibition at 20 µM [2, 8]: 72.8%; QIM Confirm CellNb 0.2 uM (Raw264.7 cells [3]): 388.9
4 | O=C(Nc1ccccc1)Nc1ccc(Br)c(Cl)c1 [IPK 000 170 27] | – | – | – | – | – | – | – | – | – | – | – | inhibition at 20 µM [2, 7]: 18.9%; inhibition at 20 µM [2, 8]: -72.4%; QIM Confirm CellNb 20 uM (Raw264.7 cells [3]; 20 uM): 46.9
5 | CCOC(=O)/N=C(\NC(C)=O)c1cccc(Cl)c1 [IPK 000 033 61] | 188.3 | 62.9 | 31.6 | 210.8 | 434.1 | 111.8 | 16.2 | 13.8 | 51.6 | 37.6 | 67.1 | –
6 | O=C(NCCOc1ccccc1Cl)c1cc([N+](=O)[O-])cc([N+](=O)[O-])c1 [IPK 000 027 72] | 333.3 | 100 | 82.6 | 267.0 | 440.4 | 238.1 | 29.3 | 77.7 | 35.1 | 97.6 | 101 | –
7 | Cc1cc(C)cc(NC(=O)c2cccs2)c1 [IPK 000 192 45] | – | – | – | – | – | – | – | – | – | – | – | inhibition at 20 µM [2, 7]: 65.4%; inhibition at 20 µM [2, 8]: 88.8%; QIM Confirm CellNb 0.2 uM (Raw264.7 cells [3]): 334.0
8 | O=C(N/N=C/c1cc(Br)cc(Br)c1O)c1ccncc1 [IPK 000 009 33] | 314.5 | 56.9 | 79.9 | 264.8 | 475.9 | 333.6 | 8.5 | 92.5 | 31.8 | 44.5 | 69.8 | –
9 | CC(C)c1ccc(CNC(=O)c2cc([N+](=O)[O-])cc([N+](=O)[O-])c2)cc1 [IPK 000 027 78] | 332.0 | 96.3 | 79.6 | 366.0 | 543.5 | 499.4 | 33 | 99.3 | 71.7 | 97.5 | 78.2 | –
10 | O=C(Oc1cccc2cccnc12)c1cccc([N+](=O)[O-])c1 [IPK 000 018 66] | 63.3 | 16.7 | -26.8 | 258.1 | 296.6 | 130.4 | 8.6 | 0.4 | 39.3 | 72 | 99.6 | –
11 | O=C(/C=C/c1ccc(Cl)cc1Cl)c1ccc(Cl)cc1 [IPK 000 015 36] | 146.5 | 36.1 | 38.1 | 331.0 | 286.0 | 168.0 | 15.8 | -4.8 | 41.9 | 59.4 | 79.5 | –
12 | CN1CCN(c2nc(Nc3ccc(OC(F)(F)F)cc3)nc(OCC(F)(F)F)n2)CC1 [IPK 000 008 12] | 396.3 | 78.4 | 64.1 | 292.9 | 225.6 | 248.0 | 2.7 | 18.9 | 36.5 | 39.7 | 48 | –
13 | Brc1ccc(/C=N/Nc2nc(N3CCOCC3)nc(N3CCOCC3)n2)o1 [IPK 000 011 65] | 145.5 | 41.9 | 6.5 | 259.6 | 336.5 | 201.1 | 4.7 | 23.4 | 39.8 | 40.6 | 96.3 | –
14 | O=C(NCc1ccc2c(c1)OCO2)c1cc([N+](=O)[O-])cc([N+](=O)[O-])c1 [IPK 000 027 85] | 315.0 | 40.1 | 100 | 429.3 | 487.4 | 224.8 | 83 | 99.4 | 97.2 | 97.9 | 71.7 | –
15 | CCCCS(=O)(=O)/C=C\C=C\S(=O)(=O)CCCC [IPK 000 036 07] | 142.3 | 59.5 | 27.7 | 267.4 | 293.9 | 164.4 | 17.2 | 32 | 42.3 | 47.9 | 70.6 | –
16 | C/C(=N/NC(=O)c1ccncc1)c1cccs1 [IPK 000 003 01] | 373.5 | 40.4 | 88.2 | 232.6 | 457.3 | 248.3 | 4.7 | 77.1 | 46.4 | 82.8 | 43 | –
17 | COc1ccccc1OCCNC(=O)c1cc([N+](=O)[O-])cc([N+](=O)[O-])c1 [IPK 000 027 74] | – | – | – | – | – | – | – | – | 43.5 | 97.5 | 100 | Primary QIM CellNb (Raw264.7 cells [1]): 366.0; QIM Confirm CellNb 0.2 uM (Raw264.7 cells [1]): 268.5; QIM Confirm CellNb 2 uM (Raw264.7 cells [1]): 478.8; QIM Confirm CellNb 20 uM (Raw264.7 cells [1]): 435.8; inhibition at 20 µM ([2]; read-out: Primary QIM % Inhibition): 87.2%; inhibition at 0.2 µM [2]: -2.7%; inhibition at 2 µM [2]: 83.3%; inhibition at 20 µM ([2]; read-out: QIM Confirm % Inhibition 20 uM): 96.9%
18 | c1ccc(COc2ccc(NCCc3ccncc3)cc2)cc1 [IPK 000 016 00] | 93.0 | 37.9 | -19 | 278.8 | 265.4 | 300.3 | 3.2 | 19.4 | 47.1 | 48.6 | 68 | –
